Experimental data published in article PMC9856672, “SGC-CAMKK2-1: A Chemical Probe for CAMKK2” (Cells, 2023).

Assays:
[1] = molecular target: T1, GSK3B (Homo sapiens, UniProt P49841); test: KINOMEscan at 1 μM, GSK3B; type: binding; conditions: 1000 nM, read-out: Percent Control
T1 construct: purchased Eurofins DiscoverX KINOMEscan
From the text: (§1) Supplement cells-12-00287-s001.zip/File S2. KinomeScan data for the CAMKK2 probe and negative control.xlsx, sheet "SGC-CAMKK2-1N" | column: Percent Control

[2] = molecular target: T2, LRRK2 (Homo sapiens, UniProt Q5S007); test: KINOMEscan at 1 μM, LRRK2; type: binding; conditions: 1000 nM, read-out: Percent Control
T2 construct: purchased Eurofins DiscoverX KINOMEscan
From the text: as §1

[3] = molecular target: T3, GRK7 (Homo sapiens, UniProt Q8WTQ7); test: KINOMEscan at 1 μM, GRK7; type: binding; conditions: 1000 nM, read-out: Percent Control
T3 construct: purchased Eurofins DiscoverX KINOMEscan
From the text: as §1

[4] = molecular target: T4, CAMK1 (Homo sapiens, UniProt Q14012); test: KINOMEscan at 1 μM, CAMK1; type: binding; conditions: 1000 nM, read-out: Percent Control
T4 construct: purchased Eurofins DiscoverX KINOMEscan
From the text: as §1

[5] = molecular target: T5, ACVR2B (Homo sapiens, UniProt Q13705); test: KINOMEscan at 1 μM, ACVR2B; type: binding; conditions: 1000 nM, read-out: Percent Control
T5 construct: purchased Eurofins DiscoverX KINOMEscan
From the text: as §1

[6] = molecular target: T6, MEK5 (Homo sapiens, UniProt Q13163); test: KINOMEscan at 1 μM, MEK5; type: binding; conditions: 1000 nM, read-out: Percent Control
T6 construct: purchased Eurofins DiscoverX KINOMEscan
From the text: as §1

[7] = molecular target: T7, RIPK4 (Homo sapiens, UniProt P57078); test: KINOMEscan at 1 μM, RIPK4; type: binding; conditions: 1000 nM, read-out: Percent Control
T7 construct: purchased Eurofins DiscoverX KINOMEscan
From the text: as §1

[8] = molecular target: T8, IRAK4 (Homo sapiens, UniProt Q9NWZ3); test: KINOMEscan at 1 μM, IRAK4; type: binding; conditions: 1000 nM, read-out: Percent Control
T8 construct: purchased Eurofins DiscoverX KINOMEscan
From the text: as §1

[9] = molecular target: T9, BUB1 (Homo sapiens, UniProt O43683); test: KINOMEscan at 1 μM, BUB1; type: binding; conditions: 1000 nM, read-out: Percent Control
T9 construct: purchased Eurofins DiscoverX KINOMEscan
From the text: as §1

[10] = molecular target: T10, PAK7 (Homo sapiens, UniProt Q9P286); test: KINOMEscan at 1 μM, PAK7; type: binding; conditions: 1000 nM, read-out: Percent Control
T10 construct: purchased Eurofins DiscoverX KINOMEscan
From the text: as §1

[11] = molecular target: T11, ACVR1 (Homo sapiens, UniProt Q04771); test: KINOMEscan at 1 μM, ACVR1; type: binding; conditions: 1000 nM, read-out: Percent Control
T11 construct: purchased Eurofins DiscoverX KINOMEscan
From the text: as §1

[12] = molecular target: T12, SRPK1 (Homo sapiens, UniProt Q96SB4); test: KINOMEscan at 1 μM, SRPK1; type: binding; conditions: 1000 nM, read-out: Percent Control
T12 construct: purchased Eurofins DiscoverX KINOMEscan
From the text: as §1

[13] = molecular target: T13, IKK-beta (Homo sapiens, UniProt O14920); test: KINOMEscan at 1 μM, IKK-beta; type: binding; conditions: 1000 nM, read-out: Percent Control
T13 construct: purchased Eurofins DiscoverX KINOMEscan
From the text: as §1

[14] = molecular target: T14, SNARK (Homo sapiens, UniProt Q9H093); test: KINOMEscan at 1 μM, SNARK; type: binding; conditions: 1000 nM, read-out: Percent Control
T14 construct: purchased Eurofins DiscoverX KINOMEscan
From the text: as §1

[15] = molecular target: T15, PIK3C2B (Homo sapiens, UniProt O00750); test: KINOMEscan at 1 μM, PIK3C2B; type: binding; conditions: 1000 nM, read-out: Percent Control
T15 construct: purchased Eurofins DiscoverX KINOMEscan
From the text: as §1

[16] = molecular target: T16, RIOK1 (Homo sapiens, UniProt Q9BRS2); test: KINOMEscan at 1 μM, RIOK1; type: binding; conditions: 1000 nM, read-out: Percent Control
T16 construct: purchased Eurofins DiscoverX KINOMEscan
From the text: as §1

[17] = molecular target: T17, DCAMKL2 (Homo sapiens, UniProt Q8N568); test: KINOMEscan at 1 μM, DCAMKL2; type: binding; conditions: 1000 nM, read-out: Percent Control
T17 construct: purchased Eurofins DiscoverX KINOMEscan
From the text: as §1

[18] = molecular target: T18, MAST1 (Homo sapiens, UniProt Q9Y2H9); test: KINOMEscan binding assay at 1 μM, MAST1; conditions: Compound Concentration 1000 nM; read-out: Percent Control
T18 construct: purchased Eurofins DiscoverX KINOMEscan
From the text: as §1

[19] = molecular target: T19, MTOR (Homo sapiens, UniProt P42345); test: KINOMEscan binding assay at 1 μM, MTOR; conditions: Compound Concentration 1000 nM; read-out: Percent Control
T19 construct: purchased Eurofins DiscoverX KINOMEscan
From the text: as §1

[20] = molecular target: T20, PFTK1 (Homo sapiens, UniProt O94921); test: KINOMEscan binding assay at 1 μM, PFTK1; conditions: Compound Concentration 1000 nM; read-out: Percent Control
T20 construct: purchased Eurofins DiscoverX KINOMEscan
From the text: as §1

[21] = molecular target: T21, PRKG1 (Homo sapiens, UniProt Q13976); test: KINOMEscan binding assay at 1 μM, PRKG1; conditions: Compound Concentration 1000 nM; read-out: Percent Control
T21 construct: purchased Eurofins DiscoverX KINOMEscan
From the text: as §1

[22] = molecular target: T22, RET(V804M) (Homo sapiens, UniProt P07949, V804M); test: KINOMEscan binding assay at 1 μM, RET(V804M); conditions: Compound Concentration 1000 nM; read-out: Percent Control
T22 construct: purchased Eurofins DiscoverX KINOMEscan
From the text: as §1

[23] = molecular target: T6, MEK5; test: KINOMEscan 1 μM, MEK5; type: binding; conditions: 1000 nM; Entrez MAP2K5; read-out: Percent Control
From the text: (§2) Supplement cells-12-00287-s001.zip/File S2. KinomeScan data for the CAMKK2 probe and negative control.xlsx, sheet "SGC-CAMKK2-1" | column: Percent Control

[24] = molecular target: T23, NEK1 (Homo sapiens, UniProt Q96PY6); test: KINOMEscan 1 μM, NEK1; type: binding; conditions: 1000 nM; Entrez NEK1; read-out: Percent Control
T23 construct: purchased Eurofins DiscoverX KINOMEscan
From the text: as §2

[25] = molecular target: T24, PIK3CA(I800L) (Homo sapiens, UniProt P42336, I800L); test: KINOMEscan 1 μM, PIK3CA(I800L); type: binding; conditions: 1000 nM; Entrez PIK3CA; read-out: Percent Control
T24 construct: purchased Eurofins DiscoverX KINOMEscan
From the text: as §2

[26] = molecular target: T25, EGFR(L747-E749del, A750P) (Homo sapiens, UniProt P00533, A750P/DEL747-749); test: KINOMEscan 1 μM, EGFR(L747-E749del, A750P); type: binding; conditions: 1000 nM; Entrez EGFR; read-out: Percent Control
T25 construct: purchased Eurofins DiscoverX KINOMEscan
From the text: as §2

[27] = molecular target: T26, MET (Homo sapiens, UniProt P08581); test: KINOMEscan 1 μM, MET; type: binding; conditions: 1000 nM; Entrez MET; read-out: Percent Control
T26 construct: purchased Eurofins DiscoverX KINOMEscan
From the text: as §2

[28] = molecular target: T27, CSK (Homo sapiens, UniProt P41240); test: KINOMEscan 1 μM, CSK; type: binding; conditions: 1000 nM; Entrez CSK; read-out: Percent Control
T27 construct: purchased Eurofins DiscoverX KINOMEscan
From the text: as §2

[29] = molecular target: T28, ACVRL1 (Homo sapiens, UniProt P37023); test: KINOMEscan 1 μM, ACVRL1; type: binding; conditions: 1000 nM; Entrez ACVRL1; read-out: Percent Control
T28 construct: purchased Eurofins DiscoverX KINOMEscan
From the text: as §2

[30] = molecular target: T29, DRAK1 (Homo sapiens, UniProt Q9UEE5); test: KINOMEscan 1 μM, DRAK1; type: binding; conditions: 1000 nM; Entrez STK17A; read-out: Percent Control
T29 construct: purchased Eurofins DiscoverX KINOMEscan
From the text: as §2

[31] = molecular target: T30, EPHB2 (Homo sapiens, UniProt P29323); test: KINOMEscan 1 μM, EPHB2; type: binding; conditions: 1000 nM; Entrez EPHB2; read-out: Percent Control
T30 construct: purchased Eurofins DiscoverX KINOMEscan
From the text: as §2

[32] = molecular target: T31, MAP3K2 (Homo sapiens, UniProt Q9Y2U5); test: KINOMEscan 1 μM, MAP3K2; type: binding; conditions: 1000 nM; Entrez MAP3K2; read-out: Percent Control
T31 construct: purchased Eurofins DiscoverX KINOMEscan
From the text: as §2

[33] = molecular target: T32, PKAC-alpha (Homo sapiens, UniProt P17612); test: DiscoverX KINOMEscan binding assay at 1 μM, PKAC-alpha; conditions: PKAC-alpha (PRKACA); Compound Concentration 1000 nM; read-out: Percent Control
T32 construct: purchased Eurofins DiscoverX KINOMEscan
From the text: as §2

[34] = molecular target: T33, PRKCI (Homo sapiens, UniProt P41743); test: DiscoverX KINOMEscan binding assay at 1 μM, PRKCI; conditions: Compound Concentration 1000 nM, read-out: Percent Control
T33 construct: purchased Eurofins DiscoverX KINOMEscan
From the text: as §2

[35] = molecular target: T34, RAF1 (Homo sapiens, UniProt P04049); test: DiscoverX KINOMEscan binding assay at 1 μM, RAF1; conditions: Compound Concentration 1000 nM, read-out: Percent Control
T34 construct: purchased Eurofins DiscoverX KINOMEscan
From the text: as §2

T6 sequence (Q13163 whole entry): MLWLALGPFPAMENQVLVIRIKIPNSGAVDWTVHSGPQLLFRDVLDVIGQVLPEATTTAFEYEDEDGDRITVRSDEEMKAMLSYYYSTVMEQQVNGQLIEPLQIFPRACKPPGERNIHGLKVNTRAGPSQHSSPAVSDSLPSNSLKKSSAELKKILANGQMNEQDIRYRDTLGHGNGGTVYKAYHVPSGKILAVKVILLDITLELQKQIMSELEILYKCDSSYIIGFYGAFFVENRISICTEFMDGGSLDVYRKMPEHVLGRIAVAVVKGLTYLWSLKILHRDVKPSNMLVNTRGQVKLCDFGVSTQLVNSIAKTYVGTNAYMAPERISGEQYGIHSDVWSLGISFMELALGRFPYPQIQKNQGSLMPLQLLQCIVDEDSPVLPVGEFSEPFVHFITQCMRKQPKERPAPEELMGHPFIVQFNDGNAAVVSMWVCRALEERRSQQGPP
T15 sequence (O00750 whole entry): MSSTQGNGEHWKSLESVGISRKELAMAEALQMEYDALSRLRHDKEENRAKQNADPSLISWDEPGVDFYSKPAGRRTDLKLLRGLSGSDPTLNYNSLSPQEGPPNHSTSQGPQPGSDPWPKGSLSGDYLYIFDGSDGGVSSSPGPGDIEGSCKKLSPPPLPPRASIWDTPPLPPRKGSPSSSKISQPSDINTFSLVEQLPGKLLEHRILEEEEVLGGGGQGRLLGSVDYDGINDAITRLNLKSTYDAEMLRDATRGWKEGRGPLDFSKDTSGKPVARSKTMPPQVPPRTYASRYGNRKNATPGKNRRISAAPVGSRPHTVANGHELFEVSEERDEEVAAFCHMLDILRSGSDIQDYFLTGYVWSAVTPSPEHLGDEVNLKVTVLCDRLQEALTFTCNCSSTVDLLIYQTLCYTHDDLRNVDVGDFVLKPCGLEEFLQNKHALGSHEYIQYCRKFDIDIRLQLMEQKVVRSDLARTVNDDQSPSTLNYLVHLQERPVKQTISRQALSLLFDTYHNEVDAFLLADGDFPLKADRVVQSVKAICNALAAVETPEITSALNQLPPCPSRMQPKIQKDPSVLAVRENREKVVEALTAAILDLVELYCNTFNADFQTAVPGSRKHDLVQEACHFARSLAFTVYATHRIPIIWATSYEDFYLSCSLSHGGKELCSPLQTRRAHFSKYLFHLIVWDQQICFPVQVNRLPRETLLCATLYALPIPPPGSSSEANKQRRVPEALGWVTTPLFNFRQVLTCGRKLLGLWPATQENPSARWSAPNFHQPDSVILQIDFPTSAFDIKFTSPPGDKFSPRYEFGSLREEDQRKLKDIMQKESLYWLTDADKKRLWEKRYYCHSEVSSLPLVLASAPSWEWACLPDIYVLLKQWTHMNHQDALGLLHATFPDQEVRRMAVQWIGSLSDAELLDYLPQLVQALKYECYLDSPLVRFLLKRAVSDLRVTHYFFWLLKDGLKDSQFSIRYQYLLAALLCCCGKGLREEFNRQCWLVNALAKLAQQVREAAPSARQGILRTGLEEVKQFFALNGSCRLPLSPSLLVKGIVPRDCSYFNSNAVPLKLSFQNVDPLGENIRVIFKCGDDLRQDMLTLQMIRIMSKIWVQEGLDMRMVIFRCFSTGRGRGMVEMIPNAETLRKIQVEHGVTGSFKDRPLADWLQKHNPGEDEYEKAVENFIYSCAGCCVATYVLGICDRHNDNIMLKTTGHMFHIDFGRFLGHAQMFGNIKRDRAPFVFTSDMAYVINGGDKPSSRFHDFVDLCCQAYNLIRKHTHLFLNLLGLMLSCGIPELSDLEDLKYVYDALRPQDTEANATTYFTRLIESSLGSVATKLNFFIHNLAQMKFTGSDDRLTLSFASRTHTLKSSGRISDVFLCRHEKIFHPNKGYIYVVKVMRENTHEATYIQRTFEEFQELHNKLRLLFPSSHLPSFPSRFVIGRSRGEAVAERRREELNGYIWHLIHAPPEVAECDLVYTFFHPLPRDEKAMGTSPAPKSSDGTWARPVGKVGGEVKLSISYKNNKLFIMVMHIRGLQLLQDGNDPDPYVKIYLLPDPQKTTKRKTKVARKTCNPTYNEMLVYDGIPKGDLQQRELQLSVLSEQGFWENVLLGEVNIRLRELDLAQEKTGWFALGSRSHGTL
T26 sequence (P08581 25-1390): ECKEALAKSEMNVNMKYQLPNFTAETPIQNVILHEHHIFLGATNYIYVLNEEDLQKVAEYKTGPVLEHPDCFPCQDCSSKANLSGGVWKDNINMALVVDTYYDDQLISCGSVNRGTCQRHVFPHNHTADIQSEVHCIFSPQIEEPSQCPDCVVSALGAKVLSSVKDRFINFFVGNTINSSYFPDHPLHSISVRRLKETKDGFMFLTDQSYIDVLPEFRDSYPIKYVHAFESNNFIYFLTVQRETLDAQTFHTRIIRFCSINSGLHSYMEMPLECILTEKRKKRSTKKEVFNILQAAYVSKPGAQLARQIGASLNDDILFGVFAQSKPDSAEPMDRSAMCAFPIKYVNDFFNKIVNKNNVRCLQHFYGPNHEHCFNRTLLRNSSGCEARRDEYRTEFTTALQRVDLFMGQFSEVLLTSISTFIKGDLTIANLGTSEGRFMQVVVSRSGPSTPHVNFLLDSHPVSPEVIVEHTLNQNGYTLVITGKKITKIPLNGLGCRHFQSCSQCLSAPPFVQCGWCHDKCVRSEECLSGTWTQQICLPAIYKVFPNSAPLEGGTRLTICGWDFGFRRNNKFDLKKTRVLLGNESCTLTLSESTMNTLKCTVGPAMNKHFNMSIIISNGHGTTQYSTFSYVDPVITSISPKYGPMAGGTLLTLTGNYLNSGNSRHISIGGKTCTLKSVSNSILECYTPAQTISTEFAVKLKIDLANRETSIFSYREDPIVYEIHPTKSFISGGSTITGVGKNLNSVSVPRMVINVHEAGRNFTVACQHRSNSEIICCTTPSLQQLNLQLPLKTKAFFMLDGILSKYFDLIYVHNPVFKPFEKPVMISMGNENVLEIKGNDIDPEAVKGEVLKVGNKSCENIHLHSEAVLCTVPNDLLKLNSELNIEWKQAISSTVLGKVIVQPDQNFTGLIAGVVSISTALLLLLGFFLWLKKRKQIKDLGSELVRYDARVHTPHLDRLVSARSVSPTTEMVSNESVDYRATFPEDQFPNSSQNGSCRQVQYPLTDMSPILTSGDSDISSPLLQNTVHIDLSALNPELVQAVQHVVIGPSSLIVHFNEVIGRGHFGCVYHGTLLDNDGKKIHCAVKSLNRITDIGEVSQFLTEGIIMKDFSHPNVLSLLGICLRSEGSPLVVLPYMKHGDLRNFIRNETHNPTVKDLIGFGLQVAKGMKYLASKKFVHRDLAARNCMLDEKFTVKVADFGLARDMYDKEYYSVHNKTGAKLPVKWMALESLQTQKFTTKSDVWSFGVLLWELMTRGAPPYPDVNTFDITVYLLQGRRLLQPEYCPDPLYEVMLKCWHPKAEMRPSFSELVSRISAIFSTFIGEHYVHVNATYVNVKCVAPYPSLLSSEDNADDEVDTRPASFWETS
T31 sequence (Q9Y2U5 whole entry): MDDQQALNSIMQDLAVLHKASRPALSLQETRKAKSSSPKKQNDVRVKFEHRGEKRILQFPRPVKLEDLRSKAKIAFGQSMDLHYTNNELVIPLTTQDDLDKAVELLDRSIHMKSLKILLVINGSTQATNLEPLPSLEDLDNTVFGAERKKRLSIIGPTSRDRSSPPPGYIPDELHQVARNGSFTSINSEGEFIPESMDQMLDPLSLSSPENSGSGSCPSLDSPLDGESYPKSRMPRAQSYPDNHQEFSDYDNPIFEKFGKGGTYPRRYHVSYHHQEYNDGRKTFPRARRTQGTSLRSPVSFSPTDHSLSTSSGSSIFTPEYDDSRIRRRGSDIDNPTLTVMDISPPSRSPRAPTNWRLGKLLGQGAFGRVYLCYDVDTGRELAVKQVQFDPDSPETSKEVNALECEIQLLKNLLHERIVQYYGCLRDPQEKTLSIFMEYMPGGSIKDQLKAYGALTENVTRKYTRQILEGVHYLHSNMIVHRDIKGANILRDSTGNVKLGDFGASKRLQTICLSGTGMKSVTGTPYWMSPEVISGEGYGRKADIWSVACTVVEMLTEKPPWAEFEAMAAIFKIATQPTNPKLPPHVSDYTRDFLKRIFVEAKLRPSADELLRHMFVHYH
T16 sequence (Q9BRS2 whole entry): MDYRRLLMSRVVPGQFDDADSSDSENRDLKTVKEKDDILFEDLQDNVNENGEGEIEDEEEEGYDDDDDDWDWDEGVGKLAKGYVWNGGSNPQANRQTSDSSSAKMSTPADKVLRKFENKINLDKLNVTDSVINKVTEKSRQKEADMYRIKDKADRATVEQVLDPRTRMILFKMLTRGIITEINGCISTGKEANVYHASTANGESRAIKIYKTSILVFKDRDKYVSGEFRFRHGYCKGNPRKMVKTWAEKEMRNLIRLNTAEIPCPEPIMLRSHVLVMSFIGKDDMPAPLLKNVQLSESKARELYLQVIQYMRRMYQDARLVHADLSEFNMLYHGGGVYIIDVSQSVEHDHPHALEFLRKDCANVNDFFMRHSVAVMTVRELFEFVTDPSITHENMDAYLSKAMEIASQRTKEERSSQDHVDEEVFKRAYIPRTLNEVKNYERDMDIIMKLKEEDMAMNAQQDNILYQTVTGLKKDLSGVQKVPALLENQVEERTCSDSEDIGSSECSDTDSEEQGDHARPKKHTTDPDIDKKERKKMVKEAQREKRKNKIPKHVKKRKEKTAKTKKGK
T8 sequence (Q9NWZ3 whole entry): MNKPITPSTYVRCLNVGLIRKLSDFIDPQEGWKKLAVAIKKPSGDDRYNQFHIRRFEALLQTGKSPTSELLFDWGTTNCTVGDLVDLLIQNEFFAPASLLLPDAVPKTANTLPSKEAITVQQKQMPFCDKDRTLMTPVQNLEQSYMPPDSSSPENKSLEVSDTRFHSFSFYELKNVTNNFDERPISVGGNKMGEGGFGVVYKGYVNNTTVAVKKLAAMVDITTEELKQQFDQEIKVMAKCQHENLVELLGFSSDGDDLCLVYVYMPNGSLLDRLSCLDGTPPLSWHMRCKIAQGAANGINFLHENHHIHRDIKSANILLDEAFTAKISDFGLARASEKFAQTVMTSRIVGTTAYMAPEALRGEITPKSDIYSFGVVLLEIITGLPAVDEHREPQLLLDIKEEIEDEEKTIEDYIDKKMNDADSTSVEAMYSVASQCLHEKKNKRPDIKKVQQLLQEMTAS

Q: `O=C(O)c1ccc(-c2coc3ncc(-c4ccccc4)cc23)cc1Cl` [SGC-CAMKK2-1N (UNC-YL-83)] was tested. Which remaining binding at 1 µM [1] did it give?
A: 47%

Q: And the remaining binding at 1 µM [2]?
A: 47%

Q: What about the remaining binding at 1 µM [3] of the same compound?
A: 50%

Q: And the remaining binding at 1 µM [4]?
A: 62%

Q: What about the remaining binding at 1 µM [5] of the same compound?
A: 66%

Q: What about the remaining binding at 1 µM [6] of the same compound?
A: 67%

Q: And the remaining binding at 1 µM [7]?
A: 70%

Q: What about the remaining binding at 1 µM [8] of the same compound?
A: 72%

Q: And the remaining binding at 1 µM [9]?
A: 79%

Q: What about the remaining binding at 1 µM [10] of the same compound?
A: 84%

Q: And the remaining binding at 1 µM [11]?
A: 85%

Q: And the remaining binding at 1 µM [12]?
A: 85%

Q: And the remaining binding at 1 µM [13]?
A: 87%

Q: And the remaining binding at 1 µM [14]?
A: 90%

Q: What about the remaining binding at 1 µM [15] of the same compound?
A: 91%

Q: And the remaining binding at 1 µM [16]?
A: 91%

Q: And the remaining binding at 1 µM [17]?
A: 100%

Q: What about the remaining binding at 1 µM [18] of the same compound?
A: 100%

Q: What about the remaining binding at 1 µM [19] of the same compound?
A: 100%

Q: And the remaining binding at 1 µM [20]?
A: 100%

Q: And the remaining binding at 1 µM [21]?
A: 100%

Q: And the remaining binding at 1 µM [22]?
A: 100%

Q: With `Cc1cccc(-c2cnc3occ(-c4ccc(C(=O)O)c(C5CCCC5)c4)c3c2)c1` [SGC-CAMKK2-1 (YL-36)] as the compound, how does the remaining binding at 1 µM [23] read?
A: 84%

Q: And the remaining binding at 1 µM [24]?
A: 85%

Q: What about the remaining binding at 1 µM [25] of the same compound?
A: 85%

Q: And the remaining binding at 1 µM [26]?
A: 87%

Q: What about the remaining binding at 1 µM [27] of the same compound?
A: 92%

Q: What about the remaining binding at 1 µM [28] of the same compound?
A: 99%

Q: What about the remaining binding at 1 µM [29] of the same compound?
A: 100%

Q: And the remaining binding at 1 µM [30]?
A: 100%

Q: What about the remaining binding at 1 µM [31] of the same compound?
A: 100%

Q: And the remaining binding at 1 µM [32]?
A: 100%

Q: And the remaining binding at 1 µM [33]?
A: 100%

Q: What about the remaining binding at 1 µM [34] of the same compound?
A: 100%

Q: And the remaining binding at 1 µM [35]?
A: 100%
